Data set [1] is described as follows: toxicity determined in rat by intraperitoneal administration (LD50). The settings on record: in vivo, ip. The text has this:
Moreover, the compounds of the invention have low toxicity.

In another data set the test system is Wistar rats. The data set can be described thus: anxiolytic action: shuttle box conditioning test, painful electric shocks, second sequence. The format is in vivo. How it is done: Wistar rats (weighing 100 g. ± 20 g.) are first permitted to become accustomed, during 10 minutes, to conditioning cages of the shuttle box type, after which they are subjected to a first sequence of 20 painful electric shocks of 3 seconds on their paws repeated every 30 seconds. During this first sequence, the rats ran away before the end of the shock about 15 times out of 20 shocks.
On the other hand, if these same animals are subjected to a sequence of shocks 4 hours later, paradoxically, instead of improving their performance (as in the course of a normal training) a reduction in the number of evasions is found: the animals have become set and are less successful in running away before the end of the shocks. This behavior is attributed to an anxiety state induced by the experimental situation.
Intraperitoneal administration of an anxiolytic substance to the rats, half an hour before the second sequence is carried out, improves their performance (increase in the number of evasions before the end of the shock).
A group of rats, to which a substance to be tested is administered, is compared with a group of control rats, which has been injected with physiological serum under the same conditions. […]

SMILES strings stand for the structures.

One may read the LD50 as the dose expected to kill half of the subjects tested. A higher LD50 goes with lower toxicity. In data set [1], `O=C1NC[C@H](c2ccc(Cl)cc2)[C@@H]1c1ccccc1` (relative stereo) [E, 4-p-chlorophenyl-3-phenyl-2-pyrrolidinone (cis isomer)] displayed an LD50 of 320 mg/kg.
In the case of `CC1C(=O)NCC1c1ccc(Cl)cc1` [Compound D, 4-p-chlorophenyl-3-methyl-2-pyrrolidinone (trans isomer)], the median lethal dose (LD50) in data set [1] worked out at 306 mg/kg. This LD50 and that of the compound before are within 1.5-fold of each other.
As for `CNC1=Nc2ccc(Cl)cc2C(c2ccccc2)=[N+]([O-])C1` [S, 7-chloro-2-methylamino-5-phenyl-3H-1,4-benzodiazepine-4-oxide], in data set [1] (reference drug), the LD50 was found to be 240 mg/kg.
Turning to `O=C1CC(c2ccc(Cl)cc2)CN1` (centres unmarked) [T, 4-(para-chlorophenyl)-pyrrolidone-(2)], the “performance (in words)” value with Wistar rats (dose of 0.32 mmole/kg) is reported as “a decrease in the performance”. The “anxiolytic action (in words)” value in the data set on Wistar rats (rat shuttle box test) is given as “practically no anxiolytic action”.

The record behind these values is US3956314A, “Derivatives of 2-pyrrolidinone” (U.C.B., Societe Anonyme, priority 1970, dated 1976).
